From patent publication US20020031483A1, “HAIR TREATMENT COMPOSITION COMPRISING A SUGAR OR CARBOHYDRATE FOR THE PURPOSES OF PARTICIPATING IN OXYGEN CONSUMPTION OF A HAIR METHOD AND USE” (priority 1998, published 2002)
“Also recorded” adds a separate entry of the source. Counter-ions that a name gives are not always drawn.

How the values were obtained:
[1] = test system: human hair follicles; test: tissue or blood; format: cell-based; conditions: read-out: inhibition of oxygen consumption by the follicles
Method: Follicles were isolated from human facelift skin and grown in culture according to the methods described (Philpott et al J.Cell.Sci.97: pp 463-470 1990). For the oxygen consumption experiments a Clarke electrode apparatus (Tank Brothers Limited, Cambridge, England) was used.
The equipment was set up in accordance with the manufacturers instructions, the temperature of the cell being maintained at 37° C. using a circulating water bath. The output of the electrode was recorded using Perkin Elmer Turbochrom 4 data logging software.
The apparatus contains a Teflon membrane in the cell which was changed daily and the cell calibrated and prepared for use as follows. […] After recording this new ‘zero oxygen’ baseline the medium was reoxygenated by bubbling air through and the new baseline recorded. […]
After calibration, a fresh 2 ml sample of William's E medium gassed with 5% carbon dioxide in air was added, the plunger inserted into the cell ensuring that no air bubble was trapped, and the output from the cell recorded to give a rate for oxygen consumption of the cell. […] The new rate of oxygen consumption was recorded for a sufficient time as to enable its accurate determination. […]
From the calibration of the electrode, a curve was derived from which a baseline reading corresponding to zero oxygen level could be derived. […]

[2] = test system: human hair follicles; test: Evolution of radiolabelled CO2 from radiolabelled substrate by cultured hair follicles; format: cell-based; conditions: five follicles per tube, 37° C.
Method: Hair follicles were isolated from human scalp skin obtained from four different female subjects; hair follicles were isolated from human scalp skin and placed into a 6 well culture plate at a density of 15 follicles/well in 5 mL complete Williams E medium containing penicillin (50 μg/mL), streptomycin (50 IU/mL), L-glutamine (2 mM), hydrocortisone (10 ng/mL) and insulin (10 μg/mL). In addition a cocktail of amino acids consisting of arginine (0.45 mM) proline (1 mM), glycine (2.6 mM) and alanine (1 mM) was also added since these are though to improve the maintenance of hair follicles in vitro. After an overnight incubation (37° C., 5% CO2 in air) to ensure continued growth following the isolation procedure, follicles were cut to a uniform length and incubated until required.
For each experimental time point, five follicles were transferred to each of 3 eppendorf tubes in triplicate with 10 μL medium. […] After the seals had been removed the medium was sampled for counting the remaining radioactivity (3×10 μL). The KOH solution was analysed by liquid scintillation counting (Beckman LS 60001C) after addition of 18 mL Hionic Fluor (Packard).
Results from the mean of each triplicate control were subtracted from the corresponding mean from the experimental results. These combined results were then analysed by regression. […]

`[N-]=[N+]=[N-]` [sodium azide] gave an inhibition at 2000 µM [1] of 54 to 87%.

For `O=C(O)CC(O)(CC(=O)O)C(=O)O` [citrate, [1,5-^14C]-sodium citrate], the “average production of CO2 evolved from metabolism of citrate” value ([2]; [1,5-14C]-sodium citrate, about 3 μCi in 100 μL medium, up to 12 h) was 0.23 (±0.04) μmol CO2 and the “uptake and metabolism by hair follicles (radiolabelled CO2 evolution), result in words” value ([2]; radiolabelled substrate in medium) was “linear increase in the amount of CO2 evolved; also recorded: taken up into hair follicles and used as an energy source”.

In the case of `C[C@]12CC[C@H]3[C@@H](CC[C@]4(O)C[C@@H](O)CC[C@]34C=O)[C@@]1(O)CC[C@@H]2C1=CC(=O)OC1` [strophanthidin, Strophanthidin], the inhibition at 100 µM ([1]; 0.1 mM strophanthidin, 160 follicles in 2 ml medium, 37° C.) is reported as 76%.
